Results: patent US20250163104A1, “MACROCYCLIC IMMUNOMODULATORS” (priority 2021, published 2025)
Where a SMILES comes first, the peptide text is derived from it. Bridges are numbered along the chain shown (N, C = ends). [ ]: non-standard residue; d: D form. The star is where a group is joined. Ala(thiazol-5-yl) = N[C@@H](Cc1cncs1)C(=O)O; Bip = N[C@@H](Cc1ccc(-c2ccccc2)cc1)C(=O)O; Phe(3-CN) = N#Cc1cccc(C[C@H](N)C(=O)O)c1; Phe(3-Cl) = N[C@@H](Cc1cccc(Cl)c1)C(=O)O; Phe(3-OMe) = COc1cccc(C[C@H](N)C(=O)O)c1; 4Pal = N[C@@H](Cc1ccncc1)C(=O)O; Cha = N[C@@H](CC1CCCCC1)C(=O)O; hSer = N[C@@H](CCO)C(=O)O; Carboxymethyl = O=C(O)C*; Orn = NCCC[C@H](N)C(=O)O; Dab = NCC[C@H](N)C(=O)O; Dap = NC[C@H](N)C(=O)O; Bn = c1ccc(C*)cc1

Target: T1, human PD-1 / PD-L1-Ig binding on Jurkat cell line over-expressing human PD-1 (Jurkat-PD-1) (Homo sapiens, UniProt Q15116)
T1 construct: expressed in transfected cells; host or cells: Jurkat
T1 sequence (Q15116 25-288): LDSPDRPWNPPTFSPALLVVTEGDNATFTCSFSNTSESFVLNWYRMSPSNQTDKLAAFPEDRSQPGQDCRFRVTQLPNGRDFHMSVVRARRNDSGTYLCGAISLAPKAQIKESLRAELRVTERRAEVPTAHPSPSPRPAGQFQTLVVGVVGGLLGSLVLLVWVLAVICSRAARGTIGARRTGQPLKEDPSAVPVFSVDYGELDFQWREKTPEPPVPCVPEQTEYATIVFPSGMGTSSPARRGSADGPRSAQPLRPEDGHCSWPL
Test: Jurkat-PD-1 Cell Binding High-Content Screening Assay (CBA)
Format: cell-based
Conditions: Jurkat-PD-1 cells, PE-labeled PD-L1-Ig 20 nM final; read-out: Jurkat HPD1_PDL1 IC50
Procedure, shortened: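 Jurkat cells over-expressing human PD-1, in DMEM/10% FCS, pre-incubated with compound 2 h at 37° C. PE-labeled human PD-L1-Ig (20 nM final) added for 1 h; cells fixed in paraformaldehyde with Hoechst 33342 nuclear stain, washed, and bound fluorescence quantified by high-content imaging.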

Row | Structure (SMILES) | IC50
1 | CC(C)C[C@H]1NC(=O)[C@H](CCCN)NC(=O)[C@H](CCC(=O)O)NC(=O)[C@H](Cc2ccc(-c3ccccc3)cc2)NC(=O)[C@H](C(C)C)NC(=O)[C@H](Cc2c[nH]c3ccccc23)NC(=O)[C@H](COCc2ccccc2)NC(=O)[C@H](Cc2ccc(OCC(=O)O)cc2)NC(=O)[C@H](CN)NC(=O)CSC[C@@H](C(=O)N[C@@H](C)C(N)=O)NC(=O)[C@H]([C@@H](C)O)NC(=O)[C@H](C(C)C)NC(=O)[C@H](CC2CCCCC2)NC(=O)[C@H](CCN)NC1=O [Compound 1497] ({CH2CO}-[Dap]Y(Carboxymethyl)S(Bn)WV[Bip]E[Orn][dL][Dab][Cha]VTCA-NH2; thioether N-14) | 344 nM
2 | CC(C)C[C@H]1NC(=O)[C@H](CCCN)NC(=O)[C@H](CCC(=O)O)NC(=O)[C@H](Cc2ccc(-c3ccccc3)cc2)NC(=O)[C@H](C(C)C)NC(=O)[C@H](Cc2c[nH]c3ccccc23)NC(=O)[C@H](CO)NC(=O)[C@H](Cc2ccc(OCC(=O)O)cc2)NC(=O)[C@H](CN)NC(=O)CSC[C@@H](C(=O)N[C@@H](C)C(N)=O)NC(=O)[C@H]([C@@H](C)O)NC(=O)[C@H](C(C)C)NC(=O)[C@H](CC2CCCCC2)NC(=O)[C@H](CCN)NC1=O [Compound 1498] ({CH2CO}-[Dap]Y(Carboxymethyl)SWV[Bip]E[Orn][dL][Dab][Cha]VTCA-NH2; thioether N-14) | 366 nM
3 | CC(C)C[C@H]1NC(=O)[C@H](CCCN)NC(=O)[C@H](CCC(=O)O)NC(=O)[C@H](Cc2ccc(-c3ccccc3)cc2)NC(=O)[C@H](C(C)C)NC(=O)[C@H](Cc2c[nH]c3ccccc23)NC(=O)[C@H](CCO)NC(=O)[C@H](Cc2ccc(OCC(=O)O)cc2)NC(=O)[C@H](CN)NC(=O)CSC[C@@H](C(=O)N[C@@H](C)C(N)=O)NC(=O)[C@H]([C@@H](C)O)NC(=O)[C@H](C(C)C)NC(=O)[C@H](CC2CCCCC2)NC(=O)[C@H](CCN)NC1=O [Compound 1499] ({CH2CO}-[Dap]Y(Carboxymethyl)[hSer]WV[Bip]E[Orn][dL][Dab][Cha]VTCA-NH2; thioether N-14) | 663 nM
4 | COC[C@@H]1NC(=O)[C@H](Cc2ccc(OCC(=O)O)cc2)NC(=O)[C@H](CN)NC(=O)CSC[C@@H](C(=O)N[C@@H](C)C(N)=O)NC(=O)[C@H]([C@@H](C)O)NC(=O)[C@H](C(C)C)NC(=O)[C@H](CC2CCCCC2)NC(=O)[C@H](CCN)NC(=O)[C@@H](CC(C)C)NC(=O)[C@H](CCCN)NC(=O)[C@H](CCC(=O)O)NC(=O)[C@H](Cc2ccc(-c3ccccc3)cc2)NC(=O)[C@H](C(C)C)NC(=O)[C@H](Cc2c[nH]c3ccccc23)NC1=O [Compound 1500] ({CH2CO}-[Dap]Y(Carboxymethyl)S(Me)WV[Bip]E[Orn][dL][Dab][Cha]VTCA-NH2; thioether N-14) | 238 nM
5 | CC(C)C[C@H]1NC(=O)[C@H](CCCN)NC(=O)[C@H](CCC(=O)O)NC(=O)[C@H](Cc2ccc(-c3ccccc3)cc2)NC(=O)[C@H](C(C)C)NC(=O)[C@H](Cc2cccc(Cl)c2)NC(=O)[C@H](CC(=O)O)NC(=O)[C@H](Cc2ccc(OCC(=O)O)cc2)NC(=O)[C@H](Cc2cccnc2)NC(=O)CSC[C@@H](C(=O)N[C@@H](C)C(N)=O)NC(=O)[C@H]([C@@H](C)O)NC(=O)[C@H](C(C)C)NC(=O)[C@H](CC2CCCCC2)NC(=O)[C@H](CCN)NC1=O [Compound 1501] | 10.7 nM
6 | CC(C)C[C@H]1NC(=O)[C@H](CCCN)NC(=O)[C@H](CCC(=O)O)NC(=O)[C@H](Cc2ccc(-c3ccccc3)cc2)NC(=O)[C@H](C(C)C)NC(=O)[C@H](Cc2cccc(C(F)(F)F)c2)NC(=O)[C@H](CC(=O)O)NC(=O)[C@H](Cc2ccc(OCC(=O)O)cc2)NC(=O)[C@H](Cc2cccnc2)NC(=O)CSC[C@@H](C(=O)N[C@@H](C)C(N)=O)NC(=O)[C@H]([C@@H](C)O)NC(=O)[C@H](C(C)C)NC(=O)[C@H](CC2CCCCC2)NC(=O)[C@H](CCN)NC1=O [Compound 1502] | 16.8 nM
7 | CC(C)C[C@H]1NC(=O)[C@H](CCCN)NC(=O)[C@H](CCC(=O)O)NC(=O)[C@H](Cc2ccc(-c3ccccc3)cc2)NC(=O)[C@H](C(C)C)NC(=O)[C@H](Cc2c[nH]c3ccccc23)NC(=O)[C@H](CC(=O)O)NC(=O)[C@H](Cc2ccc(OCC(=O)O)cc2)NC(=O)[C@H](CN)NC(=O)CSC[C@@H](C(=O)N[C@@H](C)C(N)=O)NC(=O)[C@H]([C@@H](C)O)NC(=O)[C@H](C(C)C)NC(=O)[C@H](Cc2cncs2)NC(=O)[C@H](CCN)NC1=O [Compound 1503] ({CH2CO}-[Dap]Y(Carboxymethyl)DWV[Bip]E[Orn][dL][Dab][Ala(thiazol-5-yl)]VTCA-NH2; thioether N-14) | 42.8 nM
8 | COc1cccc(C[C@@H]2NC(=O)[C@H](CC(=O)O)NC(=O)[C@H](Cc3ccc(OCC(=O)O)cc3)NC(=O)[C@H](Cc3ccc(OCC(=O)O)cc3)NC(=O)CSC[C@@H](C(=O)N[C@@H](C)C(N)=O)NC(=O)[C@H]([C@@H](C)O)NC(=O)[C@H](C(C)C)NC(=O)[C@H](CC3CCCCC3)NC(=O)[C@H](CCN)NC(=O)[C@@H](CC(C)C)NC(=O)[C@H](CCCN)NC(=O)[C@H](CCC(=O)O)NC(=O)[C@H](Cc3ccc(-c4ccccc4)cc3)NC(=O)[C@H](C(C)C)NC2=O)c1 [Compound 1504] | 5.2 nM
9 | COc1cccc(C[C@@H]2NC(=O)[C@H](CC(=O)O)NC(=O)[C@H](Cc3ccncc3)NC(=O)[C@H](Cc3ccc(OCC(=O)O)cc3)NC(=O)CSC[C@@H](C(=O)N[C@@H](C)C(N)=O)NC(=O)[C@H]([C@@H](C)O)NC(=O)[C@H](C(C)C)NC(=O)[C@H](CC3CCCCC3)NC(=O)[C@H](CCN)NC(=O)[C@@H](CC(C)C)NC(=O)[C@H](CCCN)NC(=O)[C@H](CCC(=O)O)NC(=O)[C@H](Cc3ccc(-c4ccccc4)cc3)NC(=O)[C@H](C(C)C)NC2=O)c1 [Compound 1505] ({CH2CO}-Y(Carboxymethyl)[4Pal]D[Phe(3-OMe)]V[Bip]E[Orn][dL][Dab][Cha]VTCA-NH2; thioether N-14) | 23.7 nM
10 | CC(C)C[C@H]1NC(=O)[C@H](CCCN)NC(=O)[C@H](CCC(=O)O)NC(=O)[C@H](Cc2ccc(-c3ccccc3)cc2)NC(=O)[C@H](C(C)C)NC(=O)[C@H](Cc2c[nH]c3ccccc23)NC(=O)[C@H](CC(=O)O)NC(=O)[C@H](Cc2ccc(OCC(=O)O)cc2)NC(=O)[C@H](CN)NC(=O)CSC[C@@H](C(=O)N[C@@H](C)C(N)=O)NC(=O)[C@H]([C@@H](C)O)NC(=O)[C@H](C(C)C)NC(=O)[C@H](Cc2cccc(Cl)c2)NC(=O)[C@H](CCN)NC1=O [Compound 1506] ({CH2CO}-[Dap]Y(Carboxymethyl)DWV[Bip]E[Orn][dL][Dab][Phe(3-Cl)]VTCA-NH2; thioether N-14) | 56.7 nM
11 | CC(C)C[C@H]1NC(=O)[C@H](CCCN)NC(=O)[C@H](CCC(=O)O)NC(=O)[C@H](Cc2ccc(-c3ccccc3)cc2)NC(=O)[C@H](C(C)C)NC(=O)[C@H](Cc2c[nH]c3ccccc23)NC(=O)[C@H](CC(=O)O)NC(=O)[C@H](Cc2ccc(OCC(=O)O)cc2)NC(=O)[C@H](CN)NC(=O)CSC[C@@H](C(=O)N[C@@H](C)C(N)=O)NC(=O)[C@H]([C@@H](C)O)NC(=O)[C@H](C(C)C)NC(=O)[C@H](Cc2cccc(C#N)c2)NC(=O)[C@H](CCN)NC1=O [Compound 1507] ({CH2CO}-[Dap]Y(Carboxymethyl)DWV[Bip]E[Orn][dL][Dab][Phe(3-CN)]VTCA-NH2; thioether N-14) | 154 nM
